Measured values from patent US20140356383A1, “ADMINISTRATION OF AN ANTI-GCC ANTIBODY-DRUG CONJUGATE AND A DNA DAMAGING AGENT IN THE TREATMENT OF CANCER” (priority 2013, published 2014).

Experiments:
[1] = test system: PHTX-17c primary human mCRC tumor xenograft; assay: 5F9 vcMMAE single agent efficacy in PHTX-17c; type: in vivo, SCID mice
[2] = test system: PHTX-9c primary human colon tumor xenograft; assay: Single agent antitumor activity in PHTX-9c (PHTX-09c) primary human colon tumor xenograft
Experimental: Female CB-17 SCID mice (eight weeks old) were inoculated subcutaneously (SC) into the flank with PHTX-9c tumor fragments (2 mm×2 mm). Tumor growth was monitored twice per week using vernier calipers and the mean tumor volume was calculated using the formula (0.5×[length×width^2]). When the mean tumor volume reached approximately 150 mm^3 (Study A) or 160 mm^3 (Study B), animals were randomized into treatment groups (n=10/group for Study A and n=9/group for Study B).
Doses were administered on Days 1, 8, and 15 for the QW schedule and Days 1, 4, 8, 11, 15, and 18 for the BIW schedule. […] The equivalent dose of linker+MMAE is 4% of the 5F9-vcMMAE dose. These calculations are based on a mean 3.9 MMAE molecules per antibody and a free antibody molecular weight of 150 kD. Actual antibody molecular weight will vary slightly due to degree of glycosylation.
Tumor volume and body weight were measured twice weekly and were continued beyond the treatment period to measure regrowth kinetics, as evidenced by tumor growth delay (TGD). Tumor volume measurements were continued until tumor volume reached 10% of the body weight in a single mouse within a treatment group, at which time the group was terminated. The percentage of tumor growth inhibition (TGI) ([mean tumor volume of the control group—mean tumor volume of a treated group]/mean tumor volume of the control group; a T/C ratio) was determined on Day 20. The T/C ratios across a treatment group were compared to the T/C ratios of the control group using a two-tailed Welch's t-test.
The differences in the tumor growth trends over time between pairs of treatment groups were assessed using linear mixed effects regression models. These models account for the fact that each animal was measured at multiple time points. A separate model was fit for each comparison, and the areas under the curve (AUC) for each treatment group were calculated using the predicted values from the model. The percent decrease in AUC (dAUC) relative to the reference group was then calculated.
The 5F9 vcMMAE immunoconjugate was tested for single agent anti-tumor activity in the four primary human tumor xengraft models at varying concentrations in order to explore whether GCC expression levels played a role in tumor sensitivity. […] Free-MMAE was also used as a negative control.

[3] = Study A, 0.938 mg/kg IV QW × 3 doses
[4] = Study A, 1.875 mg/kg IV QW × 3 doses
[5] = Study A, 3.75 mg/kg IV QW × 3 doses
[6] = Study A, 7.5 mg/kg IV QW × 3 doses
[7] = Study B, 0.938 mg/kg IV QW × 3 doses
[8] = Study B, 1.875 mg/kg IV QW × 3 doses
[9] = Study B, 3.75 mg/kg IV BIW × 6 doses
[10] = Study B, 3.75 mg/kg IV QW × 3 doses
[11] = Study B, 7.5 mg/kg IV QW × 3 doses
[12] = Study B, 10.0 mg/kg IV QW × 3 doses

**Q.** Which single agent sensitivity ([1]; 0.9375 mg/kg-10 mg/kg I.V. QW×3 weeks) does the source give for “5F9 vcMMAE: 5F9 mAb conjugated to MMAE using a vc (Val-Cit) linker; average drug loading about 3.6” here?
**A.** Its single agent sensitivity is “Moderate sensitivity”.

**Q.** And the T/C ([1]; dose 0.938-10 mg/kg, QW, T/C=volume of tumor/control)?
**A.** The T/C was 0.46.

**Q.** And the “day tumors start to re-grow” value ([2]; PHTX-09c, 7.5 mg/kg and 10 mg/kg)?
**A.** The value was ~40 days.

**Q.** And the “anti-tumor activity maintained post-dosing” value ([2]; PHTX-09c, 7.5 mg/kg and 10 mg/kg, last dose on day 15)?
**A.** Its value is 3 weeks.

**Q.** And the “single agent anti-tumor activity” value ([2]; PHTX-09c, 1.875-10 mg/kg I.V. QW×3 weeks)?
**A.** The value was “strong”.

**Q.** And the T/C ([2]; PHTX-09c, dose 0.938-10 mg/kg, QW, T/C=volume of tumor/control)?
**A.** The T/C was 0.09.

**Q.** What about the “BW change (mean maximum percent)” value [2, 3] of the same substance?
**A.** The value was 9.0%.

**Q.** And the “TGD” value [2, 3]?
**A.** The value was 3.3 days.

**Q.** What about the TGI ([2]; Study A, 0.938 mg/kg IV QW × 3 doses, Day 20) of the same substance?
**A.** The TGI was 21.4 (p > 0.05) %.

**Q.** What about the “BW change (mean maximum percent)” value [2, 4] of the same substance?
**A.** Its value is 10.6%.

**Q.** What about the “TGD” value [2, 4] of the same substance?
**A.** Its value is 8.2 days.

**Q.** And the TGI ([2]; Study A, 1.875 mg/kg IV QW × 3 doses, Day 20)?
**A.** The TGI was 44.7 (p > 0.001) %.

**Q.** What about the “BW change (mean maximum percent)” value [2, 5] of the same substance?
**A.** Its value is 9.0%.

**Q.** What about the “TGD” value [2, 5] of the same substance?
**A.** Its value is 17.8 days.

**Q.** What about the TGI ([2]; Study A, 3.75 mg/kg IV QW × 3 doses, Day 20) of the same substance?
**A.** The TGI was 65.3 (p > 0.001) %.

**Q.** What about the “BW change (mean maximum percent)” value [2, 6] of the same substance?
**A.** The value was 7.5%.

**Q.** And the “days until first tumor >1000 mm^3” value [2, 6]?
**A.** Its value is “(>58 days”.

**Q.** What about the TGI ([2]; Study A, 7.5 mg/kg IV QW × 3 doses, Day 20) of the same substance?
**A.** The TGI was 84.1 (p > 0.001) %.

**Q.** And the “BW change (mean maximum percent)” value [2, 7]?
**A.** The value was −2.3%.

**Q.** What about the “TGD” value [2, 7] of the same substance?
**A.** The value was 3.8 days.

**Q.** And the TGI ([2]; Study B, 0.938 mg/kg IV QW × 3 doses, Day 20)?
**A.** The TGI was 20.7 (p > 0.001) %.

**Q.** And the “BW change (mean maximum percent)” value [2, 8]?
**A.** The value was 5.6%.

**Q.** What about the “TGD” value [2, 8] of the same substance?
**A.** The value was 6.6 days.

**Q.** What about the TGI ([2]; Study B, 1.875 mg/kg IV QW × 3 doses, Day 20) of the same substance?
**A.** The TGI was 41.3 (p > 0.001) %.

**Q.** What about the “BW change (mean maximum percent)” value [2, 9] of the same substance?
**A.** The value was −1.8%.

**Q.** And the “TGD” value [2, 9]?
**A.** Its value is 31.9 days.

**Q.** And the TGI ([2]; Study B, 3.75 mg/kg IV BIW × 6 doses, Day 20, 3.75 mg/kg)?
**A.** Its TGI is 84.9 (p > 0.001) %.

**Q.** What about the “BW change (mean maximum percent)” value [2, 10] of the same substance?
**A.** The value was −2.2%.

**Q.** And the “TGD” value [2, 10]?
**A.** The value was 16 days.

**Q.** And the TGI ([2]; Study B, 3.75 mg/kg IV QW × 3 doses, Day 20)?
**A.** Its TGI is 65.7 (p > 0.001) %.

**Q.** And the “BW change (mean maximum percent)” value [2, 11]?
**A.** Its value is 6.5%.

**Q.** And the “days until first tumor >1000 mm^3” value [2, 11]?
**A.** Its value is “(>47 days”.

**Q.** What about the TGI ([2]; Study B, 7.5 mg/kg IV QW × 3 doses, Day 20) of the same substance?
**A.** The TGI was 84.3 (p > 0.001) %.

**Q.** What about the “BW change (mean maximum percent)” value [2, 12] of the same substance?
**A.** The value was 7.2%.

**Q.** And the “days until first tumor >1000 mm^3” value [2, 12]?
**A.** The value was “(>56 days”.

**Q.** What about the TGI ([2]; Study B, 10.0 mg/kg IV QW × 3 doses, Day 20, 10 mg/kg) of the same substance?
**A.** Its TGI is 91.2 (p > 0.001) %.

**Q.** And the “greatest maximum body weight loss during treatment period” value ([2]; Study B, day 7, 0.18 mg/kg MMAE group and 0.938 mg/kg 5F9-vcMMAE group)?
**A.** Its value is 2.3%.

**Q.** What about the TGI ([2]; both studies (A and B), 0.938 mg/kg IV QW) of the same substance?
**A.** The TGI was 20.7-21.4%.

**Q.** What about the TGI ([2]; both studies (A and B), 1.875 mg/kg IV QW) of the same substance?
**A.** Its TGI is 41.3-44.7%.

**Q.** And the TGI ([2]; both studies (A and B), 3.75 mg/kg IV QW)?
**A.** Its TGI is 65.3-65.7%.

**Q.** And the TGI ([2]; both studies (A and B), 7.5 mg/kg IV QW)?
**A.** Its TGI is 84.1-84.3%.
